{"source": "ChEMBL document CHEMBL1124295", "about": "“Synthesis and oral antiallergic activity of carboxylic acids derived from imidazo[2,1-c][1,4]benzoxazines, imidazo[1,2-a]quinolines, imidazo[1,2-a]quinoxalines, imidazo[1,2-a]quinoxalinones, pyrrolo[1,2-a]quinoxalinones, pyrrolo[2,3-a]quinoxalinones, and imidazo[2,1-b]benzothiazoles” (1988)", "key": {"Rattus norvegicus [1]": {"test_system": "Rattus norvegicus", "assay": "Inhibition of the IgE-mediated passive cutaneous anaphylaxis (PCA) reaction in rat after intravenous administration; Range 0.0103-0.0214", "type": "functional"}, "Rattus norvegicus [2]": {"test_system": "Rattus norvegicus", "assay": "Inhibition of the IgE-mediated passive cutaneous anaphylaxis (PCA) reaction in rat after intravenous administration; Range 0.104", "type": "functional"}, "Rattus norvegicus [3]": {"test_system": "Rattus norvegicus", "assay": "Inhibition of the IgE-mediated passive cutaneous anaphylaxis (PCA) reaction in rat after oral administration; Inactive at 20 mg/kg", "type": "functional, organism-based", "set-up": "dose 20 mg/kg"}, "Rattus norvegicus [4]": {"test_system": "Rattus norvegicus", "assay": "Inhibition of the IgE-mediated passive cutaneous anaphylaxis (PCA) reaction in rat after oral administration; Range 0.37-0.65", "type": "functional"}, "Rattus norvegicus [5]": {"test_system": "Rattus norvegicus", "assay": "Inhibition of the IgE-mediated passive cutaneous anaphylaxis (PCA) reaction in rat after oral administration; Range 2.51-4.1", "type": "functional"}, "Rattus norvegicus [6]": {"test_system": "Rattus norvegicus", "assay": "Inhibition of the IgE-mediated passive cutaneous anaphylaxis (PCA) reaction in rat after intravenous administration; Range 0.39-0.96", "type": "functional"}, "Rattus norvegicus [7]": {"test_system": "Rattus norvegicus", "assay": "Inhibition of the IgE-mediated passive cutaneous anaphylaxis (PCA) reaction in rat after oral administration; Range 0.51-7.81", "type": "functional"}, "Rattus norvegicus [8]": {"test_system": "Rattus norvegicus", "assay": "Inhibition of the IgE-mediated passive cutaneous anaphylaxis (PCA) reaction in rat after intravenous administration; Range 0.025-0.11", "type": "functional"}, "Rattus norvegicus [9]": {"test_system": "Rattus norvegicus", "assay": "Inhibition of the IgE-mediated passive cutaneous anaphylaxis (PCA) reaction in rat after intravenous administration; Range 0.08-0.37", "type": "functional"}, "Rattus norvegicus [10]": {"test_system": "Rattus norvegicus", "assay": "Inhibition of the IgE-mediated passive cutaneous anaphylaxis (PCA) reaction in rat after intravenous administration; Range 0.31-0.45", "type": "functional"}, "Rattus norvegicus [11]": {"test_system": "Rattus norvegicus", "assay": "Inhibition of the IgE-mediated passive cutaneous anaphylaxis (PCA) reaction in rat after intravenous administration; Range 0.043-0.12", "type": "functional"}}, "note": "The source made the active and inactive calls. No cut-off for these calls is given here."}
{"smiles": "O=C(O)C(=O)Nc1ccc2c(c1)-n1cc(C(=O)O)nc1CO2", "values": [{"measurement": "ED50", "setting": "Rattus norvegicus [1]", "value": 0.0172, "unit": "mg/kg"}]}
{"smiles": "O=C(O)c1ncn2c1c(O)nc1ccccc12", "values": [{"measurement": "ED50", "setting": "Rattus norvegicus [2]", "value": 0.104, "unit": "mg/kg"}, {"measurement": "ED50", "setting": "Rattus norvegicus [3]", "value": "inactive"}]}
{"smiles": "CCOC(=O)C(=O)Nc1ccc2c(c1)-n1cc(C(=O)OC)nc1CO2", "values": [{"measurement": "ED50", "setting": "Rattus norvegicus [4]", "value": 0.5, "unit": "mg/kg"}]}
{"smiles": "O=C(OCCCl)c1cn2c(ccc3ccccc32)n1", "values": [{"measurement": "ED50", "setting": "Rattus norvegicus [5]", "value": 3.5, "unit": "mg/kg"}]}
{"smiles": "COc1ccc2c(c1)sc1nc(C(=O)O)cn12", "values": [{"measurement": "ED50", "setting": "Rattus norvegicus [6]", "value": 0.62, "unit": "mg/kg"}]}
{"smiles": "CS(=O)(=O)c1cc2nc(C(=O)O)cn2c2ccccc12", "values": [{"measurement": "ED50", "setting": "Rattus norvegicus [7]", "value": 1.64, "unit": "mg/kg"}, {"measurement": "ED50", "setting": "Rattus norvegicus [8]", "value": 0.047, "unit": "mg/kg"}]}
{"smiles": "CCc1ccc2ccc3nc(C(=O)O)cn3c2c1", "values": [{"measurement": "ED50", "setting": "Rattus norvegicus [9]", "value": 0.16, "unit": "mg/kg"}]}
{"smiles": "Cc1nc(C(=O)O)c2c(O)nc3ccccc3n12", "values": [{"measurement": "ED50", "setting": "Rattus norvegicus [10]", "value": 0.37, "unit": "mg/kg"}]}
{"smiles": "C[S+]([O-])c1ccc2ccc3nc(C(=O)O)cn3c2c1", "note": "(stereo unspecified)", "values": [{"measurement": "ED50", "setting": "Rattus norvegicus [11]", "value": 0.076, "unit": "mg/kg"}]}
